# Test results from US10273279B2, “Protease activated receptor-1 (PAR1) derived cytoprotective polypeptides and related methods” (THE SCRIPPS RESEARCH INSTITUTE, priority 2011, dated 2019).
# Substitutions are numbered along the chain they refer to. “Also recorded” adds a separate entry of the source.
# How the values were obtained:
# SEAP-PAR1 [1] = molecular target: T1, SEAP-PAR1 (Homo sapiens, UniProt P25116); test: SEAP-PAR1 cleavage reporter on transfected HEK-293 cells (SEAP release); assay type: cell-based; conditions: cells containing wild-type EPCR
# T1 construct: we created a full-length PAR-1 construct linked at the N-terminus to an alkaline phosphatase reporter group (SEAP); expressed in transfected cells
# T1 sequence (P25116 22-425): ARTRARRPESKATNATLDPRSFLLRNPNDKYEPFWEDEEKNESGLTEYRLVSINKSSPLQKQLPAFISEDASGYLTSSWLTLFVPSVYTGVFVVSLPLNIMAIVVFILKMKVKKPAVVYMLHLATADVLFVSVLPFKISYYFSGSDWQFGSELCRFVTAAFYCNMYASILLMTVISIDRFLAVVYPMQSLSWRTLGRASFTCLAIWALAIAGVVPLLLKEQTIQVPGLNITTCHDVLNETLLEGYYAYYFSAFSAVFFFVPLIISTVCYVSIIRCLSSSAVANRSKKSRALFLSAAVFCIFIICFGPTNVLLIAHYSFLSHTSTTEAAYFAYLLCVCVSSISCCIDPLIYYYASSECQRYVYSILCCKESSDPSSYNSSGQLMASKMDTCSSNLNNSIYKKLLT
# From the text: (§1) To facilitate analysis of APC-mediated PAR-1 activation, we created a full-length PAR-1 construct linked at the N-terminus to an alkaline phosphatase reporter group (SEAP). Selection of stable cell lines expressing both endothelial protein C receptor (EPCR) (wt or E86A) and SEAP-PAR1 allowed for a reliable and reproducible analysis of EPCR-dependent PAR-1 activation by APC. Mass-spec analysis of cleavage fragments generated by APC of a synthetic PAR-1 N-terminal tail peptide (TR33-62) identified both Arg^41 and Arg^46 as potential cleavage sites for APC proteolysis, as noted above. […] R41Q-SEAP-PAR1 was cleaved by APC in the presence of EPCR. This surprising result was also obtained for R41A-SEAP PAR1.
# (§2) 2009; 113:5970-5978. SEAP-PAR1, either in the presence or absence of wt-EPCR, were transfected into HEK-293 cells to obtain stable cells expressing SEAP-PAR1 or wt-EPCR/SEAP-PAR1. Mutations in SEAP-PAR1 were introduced using the Quickchange method (Agilent). Cells were grown in 96-wells plates to confluency in Dulbeco's modified Eagle media (DMEM): Ham's F-12 (Invitrogen) supplemented with penicillin-streptomycin-glutamine (PSG) (Gibco) and 10% fetal bovine serum (Omega) in a humidified atmosphere at 37° C. and 5% CO2 Cells were washed with Hank's balanced salt solution (HBSS; Invitrogen) supplemented with 1.3 mM CaCl2, 0.6 mM MgCl2 and 0.1% endotoxin free BSA (Calbiochem) and incubated with APC. After 60 min, SEAP release was determined using 1-step PNPP (Pierce). Values were corrected for background activity derived from the same cells incubated in the absence of APC and expressed as a percentage of total SEAP available on the cell membrane.
# SEAP-PAR1 [2] = molecular target: T2, SEAP-PAR1 (Homo sapiens, UniProt P25116, R41Q/R46Q); test: as above; assay type: cell-based; conditions: cells with wt-EPCR
# T2 construct: we created a full-length PAR-1 construct linked at the N-terminus to an alkaline phosphatase reporter group (SEAP); expressed in transfected cells
# T2 sequence (P25116 22-425 R41Q/R46Q): T1 sequence (P25116 22-425) with R20Q, R25Q
# From the text: as §1, §2
# SEAP-PAR1 [3] = molecular target: T3, SEAP-PAR1 (Homo sapiens, UniProt P25116, R46Q); test: as above; assay type: cell-based; conditions: cells with wt-EPCR
# T3 construct: we created a full-length PAR-1 construct linked at the N-terminus to an alkaline phosphatase reporter group (SEAP); expressed in transfected cells
# T3 sequence (P25116 22-425 R46Q): T1 sequence (P25116 22-425) with R25Q
# From the text: as §1, §2
# SEAP-PAR1 [4] = test: as above; assay type: cell-based, human; conditions: in the absence of EPCR
# From the text: as §1, §2
# [5] = tested on: Rac1 in endothelial EA.hy.926 cells; test: Rac1 activation (GST-PAK1 pull down of active GTP-Rac1); assay type: cell-based, human; conditions: peptides 50 μM, 30 or 180 min
# Protocol: Some assays employed in this study were performed as follow. Rac1 activation. The pGEXTK-PAK1 70-117 construct encoding a GST fusion to p21-activated kinase (PAK-1)-binding domain (PBD) was kindly made available by Dr. J Chernoff (Addgene plasmid 12217). GST-PAK1 was purified from transformed BL21 (DE3) Escherichia coli using B-Per lysis buffer (Pierce) with lysozyme, DNAse 1 and Halt EDTA-free protease inhibitor cocktail (Pierce) on Glutathione-agarose according to the manufacturer's recommendation. Pull down of active Rac1 was performed as described in Pellegrin et al., Curr. Protoc. Cell Biol. 2008; Chapter 14:Unit 14.8. Briefly, endothelial EA.hy.926 cells (5*10^6 per plate) were grown in 100-mm dishes for 48 hr and serum starved overnight before addition of peptides (50 μM) for 30 or 180 min. Lysates (2 mg) were mixed with GST-PAK1 Glutathione-agarose (150 μg) and after washing active GTP-Rac1 was eluted from GST-PAK1 Glutathione-agarose by boiling in reducing SDS sample buffer (LI-COR). Active GTP-Rac1 was resolved on 12% SDS PAGE, transferred to Immobilon-FL PVDF membrane, and immunoblotted with a mouse anti-Rac1 antibody (BD Bioscience) and IRDye 800CW donkey anti-mouse secondary antibodies (LI-COR). Immunoblots were scanned on the Odyssey Imager (LI-COR). Quantification of integrated fluorescence intensity (K counts) was done using Odyssey Application Software v3.0 (LI-COR).
Substance,cleavage of wt-PAR1 (SEAP-PAR1) (SEAP-PAR1 [1]),cleavage of R41Q/R46Q-SEAP-PAR1 (SEAP-PAR1 [2]),cleavage of R46Q-SEAP-PAR1 (SEAP-PAR1 [3]),cleavage of wt-SEAP-PAR1 and R46Q-SEAP-PAR1 (SEAP-PAR1 [4]),activation of Rac1 [5]
"APC: Activated Protein C, serine protease with anticoagulant and cytoprotective cell signaling activities",cleaved,eliminated PAR-1 cleavage; also recorded: negligible,did not eliminate PAR1 cleavage,did cleave,
NPNDKYEPFWEDEEKNESGL (listed as Homo sapiens) [TR47-66],,,,,induced APC-like activation of Rac1
thrombin,cleaved,,efficient cleavage,,
